This passage reports TGI results from PubChem BioAssay (NCI).

Test systems include HS 578T breast; NCI/ADR-RES ovarian; NCI-H23 lung; DU-145 prostate; SK-MEL-2 melanoma; EKVX NSCLC; OVCAR-5 ovarian; SF-268 CNS; LOX IMVI melanoma; HCC-2998 colon; RPMI-8226 leukemia.
Common to all, as to experiment: NCI tumour cell line growth inhibition, 48 h

Structures are written as SMILES.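 Tested at 5 concentrations; 48 h exposure; 96-well plates; endpoints linearly interpolated, else capped at highest concentration. TGI: total growth inhibition.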

As to `O=C1C=C2S[C@H]3C[C@]2(C=C1Br)c1c(c(O)c2c4c1=NCCC=4C=N2)N3`, the TGI in the assay with HS 578T breast stood at 3.48 µM; with NCI/ADR-RES ovarian, 0.457 µM; in the assay on NCI-H23 lung, 2.57 µM; with DU-145 prostate, 4.09 µM; with SK-MEL-2 melanoma, 1.39 µM; in the assay with EKVX NSCLC, 3.19 µM. The TGI with OVCAR-5 ovarian is 3.25 µM; in the assay with SF-268 CNS, 2.91 µM; in the assay on LOX IMVI melanoma it was 1.27 µM; in the assay with HCC-2998 colon, 4.98 µM.

As to `CCOC(=O)C(SCCO)C(C(=O)OCC)n1ccc(N)nc1=O` (centres undefined), the TGI in the assay with HS 578T breast, in the assay with NCI/ADR-RES ovarian, in the assay on NCI-H23 lung, in the assay on DU-145 prostate, with SK-MEL-2 melanoma and in the assay with EKVX NSCLC was more than 100 µM each time. Besides, the TGI in the assay with OVCAR-5 ovarian, in the assay on RPMI-8226 leukemia, with SF-268 CNS, in the assay with LOX IMVI melanoma and with HCC-2998 colon was more than 100 µM throughout.

Consider `CSC1=N/C(=C\c2cccs2)C(=O)N1CN1CCOCC1`, for which the TGI with HS 578T breast is more than 100 µM; in the assay with NCI/ADR-RES ovarian it was 90.5 µM; in the assay on NCI-H23 lung it was more than 100 µM; with DU-145 prostate, more than 100 µM; in the assay with SK-MEL-2 melanoma it was more than 100 µM; in the assay on EKVX NSCLC it was more than 100 µM. The TGI in the assay with OVCAR-5 ovarian, with RPMI-8226 leukemia, in the assay on SF-268 CNS and with LOX IMVI melanoma was more than 100 µM each time.

On to `C/C(CC(O)(C(F)(F)F)C(F)(F)F)=N\N`, for which the TGI in the assay with HS 578T breast, with NCI/ADR-RES ovarian, with NCI-H23 lung, with DU-145 prostate, in the assay with SK-MEL-2 melanoma and in the assay with EKVX NSCLC was more than 10 µM throughout. Moreover, the TGI with OVCAR-5 ovarian, in the assay with RPMI-8226 leukemia, with SF-268 CNS, in the assay on LOX IMVI melanoma and in the assay with HCC-2998 colon was more than 10 µM throughout.

As to `COCCc1c(C)c(C#N)c2n(C)c3ccccc3n2c1=O`, the TGI with HS 578T breast, in the assay with NCI/ADR-RES ovarian, in the assay with NCI-H23 lung, with DU-145 prostate, with SK-MEL-2 melanoma and with EKVX NSCLC was more than 10 µM in each case. Besides, the TGI in the assay on OVCAR-5 ovarian, with RPMI-8226 leukemia, with SF-268 CNS, in the assay with LOX IMVI melanoma and in the assay with HCC-2998 colon was more than 10 µM throughout.

For the compound `CCOC(=O)/C(C(=S)NC)=C(/N)N1CCCC1`, the TGI in the assay with HS 578T breast, in the assay on NCI/ADR-RES ovarian, with NCI-H23 lung, in the assay with DU-145 prostate, with SK-MEL-2 melanoma and with EKVX NSCLC was more than 100 µM each time. The TGI in the assay on OVCAR-5 ovarian, in the assay with RPMI-8226 leukemia, in the assay with SF-268 CNS, in the assay with LOX IMVI melanoma and in the assay with HCC-2998 colon was more than 100 µM each time.

As to `C=C1C(=O)OC2/C=C(\C)CC/C=C(/C)CC(OC(=O)/C(=C/CO)CO)C12` (centres undefined), the TGI with HS 578T breast is more than 100 µM; in the assay with NCI/ADR-RES ovarian, more than 100 µM; with NCI-H23 lung, 39.1 µM; in the assay with DU-145 prostate, 33.1 µM; with SK-MEL-2 melanoma, 64 µM; in the assay on OVCAR-5 ovarian, 36.8 µM. The TGI in the assay on RPMI-8226 leukemia was 72.7 µM; in the assay on SF-268 CNS, 77.5 µM; with LOX IMVI melanoma, 81.5 µM; with HCC-2998 colon, 41.3 µM.

As to `CC1=CC(c2ccccc2)OP1(=O)c1ccccc1` (centres undefined), the TGI with HS 578T breast, in the assay on NCI/ADR-RES ovarian, with NCI-H23 lung, in the assay with DU-145 prostate, in the assay on SK-MEL-2 melanoma and in the assay with EKVX NSCLC was more than 100 µM throughout. For the same compound, the TGI in the assay with OVCAR-5 ovarian, with SF-268 CNS, in the assay with LOX IMVI melanoma and in the assay on HCC-2998 colon was more than 100 µM in each case.

Turning to `NC(=O)c1cnc2sc3ccccc3n2c1=O`, the TGI in the assay with HS 578T breast, in the assay on NCI/ADR-RES ovarian, with DU-145 prostate, in the assay on SK-MEL-2 melanoma, in the assay with EKVX NSCLC and with OVCAR-5 ovarian was more than 100 µM throughout. Further, the TGI with RPMI-8226 leukemia, with SF-268 CNS, with LOX IMVI melanoma and in the assay with HCC-2998 colon was more than 100 µM in each case.

As to `C=C1c2nc3ccccc3n2C=C(c2ccc(Cl)cc2)N1c1ccc(OCCN2CCOCC2)cc1`, the TGI in the assay on HS 578T breast is more than 100 µM; with NCI/ADR-RES ovarian, more than 100 µM; in the assay with NCI-H23 lung it was more than 100 µM; in the assay with DU-145 prostate, more than 100 µM; with SK-MEL-2 melanoma it was 29.1 µM; with OVCAR-5 ovarian it was more than 100 µM. Further, the TGI is 10.9 µM in the assay on RPMI-8226 leukemia, more than 100 µM in the assay with SF-268 CNS, more than 100 µM in the assay with LOX IMVI melanoma and more than 100 µM in the assay on HCC-2998 colon.

As for `C1CNCCN2CCCNCCN(C1)CC2`, the TGI in the assay on HS 578T breast, in the assay with NCI/ADR-RES ovarian, with NCI-H23 lung, with DU-145 prostate, in the assay with SK-MEL-2 melanoma and in the assay on EKVX NSCLC was more than 100 µM in each case. In addition, the TGI in the assay on OVCAR-5 ovarian, with RPMI-8226 leukemia, in the assay on SF-268 CNS and in the assay with LOX IMVI melanoma was more than 100 µM throughout.

Take `N#CS/C(C(Cl)=C(Cl)Cl)=C(/Cl)[N+](=O)[O-]`: the TGI was more than 61.4 µM in the assay on HS 578T breast; more than 28.1 µM in the assay on NCI/ADR-RES ovarian; 7.95 µM in the assay with NCI-H23 lung; 27.8 µM in the assay on DU-145 prostate; 17.1 µM in the assay on SK-MEL-2 melanoma; 6.76 µM in the assay with EKVX NSCLC. Besides, the TGI came to 4.25 µM in the assay on RPMI-8226 leukemia, 18.9 µM in the assay with SF-268 CNS, 2.37 µM in the assay with LOX IMVI melanoma and 34.6 µM with HCC-2998 colon.

Consider `CCN(CC)CCNc1ccc([N+](=O)[O-])c2nc3ccccc3c(N)c12`, for which the TGI was 1.83 µM in the assay with HS 578T breast; 1.94 µM with NCI/ADR-RES ovarian; 2.03 µM in the assay with NCI-H23 lung; more than 10 µM with DU-145 prostate; 0.955 µM in the assay with SK-MEL-2 melanoma; 2.51 µM in the assay on EKVX NSCLC. For the same compound, the TGI in the assay on OVCAR-5 ovarian is 5.26 µM; in the assay with RPMI-8226 leukemia, 6.18 µM; in the assay on SF-268 CNS it was 3.79 µM; with LOX IMVI melanoma, 1.61 µM.
